Assay results as given in ChEMBL document CHEMBL4304802, “Novel promising 4-anilinoquinazoline-based derivatives as multi-target RTKs inhibitors: Design, molecular docking, synthesis, and antitumor activities in vitro and vivo” (Bioorg Med Chem, 2019).

Key:
[1] = system: DU-145; experiment: Antiproliferative activity against human DU145 cells incubated for 72 hrs by MTT assay; assay type: functional, cell-based; details: DU-145, 72 h
[2] = system: A549; experiment: Antiproliferative activity against human A549 cells incubated for 72 hrs by MTT assay; assay type: functional, cell-based; details: A549, 72 h
[3] = Cytotoxicity against human CCC-HPF1 cells assessed as decrease in cell viability incubated for 72 hrs by MTT assay; assay type: cell-based; details: CCC-HPF-1, 72 h
[4] = system: SH-SY5Y; experiment: Antiproliferative activity against human SH-SY5Y cells incubated for 72 hrs by MTT assay; assay type: functional, cell-based
[5] = system: HepG2; experiment: Antiproliferative activity against human HepG2 cells incubated for 72 hrs by MTT assay; assay type: functional, cell-based; details: HepG2, 72 h
[6] = system: MCF7; experiment: Antiproliferative activity against human MCF7 cells incubated for 72 hrs by MTT assay; assay type: functional, cell-based; details: MCF7, 72 h
[7] = Toxicity in nude mouse xenografted with human HepG2 cells assessed as change in body weight at 40 mg/kg administrated daily for 50 days post implantation; assay type: organism-based; details: in vivo, 1200 h
[8] = Toxicity in nude mouse xenografted with human HepG2 cells assessed as change in body weight at 20 mg/kg administrated daily for 50 days post implantation; assay type: organism-based; details: in vivo, 1200 h
[9] = system: HepG2; experiment: Antitumor activity against human HepG2 cells xenografted in nude mouse assessed as inhibition of tumor at 40 mg/kg administrated daily for 30 days post implantation by vernier caliper analysis relative to control; assay type: functional; details: HepG2, 720 h

SMILES	IC50 [1] [µM]	IC50 [2] [µM]	IC50 [3] [µM]	IC50 [4] [µM]	IC50 [5] [µM]	IC50 [6] [µM]	Activity [7]	Activity [8]	inhibition in vivo at 40 mg/kg [9] [%]
O=[N+]([O-])c1ccc(COc2cccc(Nc3ncnc4cc5c(cc34)OCCOCCOCCOCCO5)c2)cc1	13.8	19.8	> 100	8.42	9.82	6.41	–	–	–
FC(F)(F)c1ccc(COc2ccc(Nc3ncnc4cc5c(cc34)OCCOCCO5)cc2)cc1	> 100	> 100	–	30.4	> 100	> 100	–	–	–
FC(F)(F)c1ccc(COc2ccc(Nc3ncnc4cc5c(cc34)OCCOCCOCCO5)cc2)cc1	> 100	30.7	–	> 100	> 100	28.5	–	–	–
FC(F)(F)c1ccc(COc2cccc(Nc3ncnc4cc5c(cc34)OCCOCCOCCOCCO5)c2)cc1	26.9	8.52	45.2	8.56	5.7	8.48	–	–	–
O=[N+]([O-])c1ccc(COc2ccc(Nc3ncnc4cc5c(cc34)OCCOCCO5)cc2)cc1	> 100	8.62	47.1	55.2	> 100	39.7	–	–	–
CNC(=O)c1cc(Oc2ccc(NC(=O)Nc3ccc(Cl)c(C(F)(F)F)c3)cc2)ccn1 [SORAFENIB]	83.7	25.7	–	> 100	7.84	38.2	Toxic	Non-Toxic	100
O=[N+]([O-])c1ccc(COc2ccccc2Nc2ncnc3cc4c(cc23)OCCOCCOCCO4)cc1	> 100	29.9	–	75.5	60.8	> 100	–	–	–
FC(F)(F)c1ccc(COc2ccccc2Nc2ncnc3cc4c(cc23)OCCOCCOCCO4)cc1	> 100	> 100	–	> 100	> 100	> 100	–	–	–
c1ccc(COc2ccc(Nc3ncnc4cc5c(cc34)OCCOCCO5)cc2)cc1	> 100	43.9	–	39.3	55.5	> 100	–	–	–
O=[N+]([O-])c1ccc(COc2ccccc2Nc2ncnc3cc4c(cc23)OCCOCCO4)cc1	85.6	28.4	–	> 100	50.2	> 100	–	–	–
FC(F)(F)c1ccc(COc2cccc(Nc3ncnc4cc5c(cc34)OCCOCCOCCO5)c2)cc1	2.76	24.9	33.3	20	34	17.6	–	–	–
c1ccc(COc2ccccc2Nc2ncnc3cc4c(cc23)OCCOCCOCCOCCO4)cc1	> 100	48.5	–	24	29.2	> 100	–	–	–
